Experimental data as given in patent US12016847B2, “Methods of treating prostate cancer” (Bristol-Myers Squibb Company, priority 2021, dated 2024).

Columns and labels:
[1] = system: 22Rv.1 cells; experiment: Proliferation assay (Cell Titer-Glo), 22Rv.1 cells; type: cell-based; conditions: Homo sapiens, 22Rv1, 72 h, 3 days
Description: (§1) VCaP, LNCaP, 22Rv.1, DU145 and PC3 cancer cell lines were obtained from ATCC. VCaP were cultured in DMEM media supplemented with 8% FBS, LNCaP, 22Rv.1 and DU145 were cultured in RPMI1640 media supplemented with 10% FBS, and PC3 were cultured in F12K media supplemented with 10% FBS.
(§2) Cells were plated in a 96-well format and were allowed to adhere 24 h before treatment. Drugs were titrated 1:3 from 1 μM to 0.1 nM with 9 doses in triplicate. Cell proliferation was measured on the day of treatment (Day 0) and on Day 3 using Cell Titer-Glo reagent (Promega) according to the manufacturer's instructions. Cell growth normalized to the DMSO vehicle control and to Day 0 was fitted by nonlinear regression using GraphPad Prism 7.03 (GraphPad Software, Inc.).

[2] = system: HEXIM1; experiment: Gene expression analysis (qPCR), HEXIM1 in VCaP cells; type: cell-based; conditions: 48 h
Description: as §1
(§3) Cells were plated in a 6-well format and were allowed to adhere 24 h before treatment. Cells were treated for 48 h before collecting them. RNA was purified from cells using the RNeasy kit (Qiagen) according to the manufacturer's instructions. Quantitative RTPCR was performed using the TaqMan assay (Thermo Fisher Scientific) on the ABI QuantStudio 7 Flex Real-Time PCR System.

[3] = system: KLK3; experiment: Gene expression analysis (qPCR), KLK3 in VCaP cells; type: cell-based; conditions: 48 h
Description: as §1, §3

[4] = system: LNCaP cells; experiment: Proliferation assay (Cell Titer-Glo), LNCaP cells; type: cell-based, human; conditions: 3 days of treatment, at 1 uM, related to Day 0 and DMSO
Description: as §1, §2

[5] = system: DU145 cells; experiment: Proliferation assay (Cell Titer-Glo), DU145 cells; type: cell-based; conditions: 3 days
Description: as §1, §2

[6] = system: KLK3; experiment: Gene expression analysis (qPCR), KLK3 in LNCaP cells; type: cell-based, human; conditions: 48 h
Description: as §1, §3

[7] = system: MYC; experiment: Gene expression analysis (qPCR), MYC in LNCaP cells; type: cell-based, human; conditions: 48 h
Description: as §1, §3

[8] = system: TMPRSS2; experiment: Gene expression analysis (qPCR), TMPRSS2 in 22Rv.1 cells; type: cell-based; conditions: 48 h
Description: as §1, §3

[9] = system: PC3 cells; experiment: Proliferation assay (Cell Titer-Glo), PC3 cells; type: cell-based; conditions: 3 days
Description: as §1, §2

[10] = system: VCaP cells; experiment: Proliferation assay (Cell Titer-Glo), VCaP cells; type: cell-based; conditions: 3 days
Description: as §1, §2

[11] = system: HEXIM1; experiment: Gene expression analysis (qPCR), HEXIM1 in 22Rv.1 cells; type: cell-based; conditions: 48 h
Description: as §1, §3

[12] = system: MYC; experiment: Gene expression analysis (qPCR), MYC in VCaP cells; type: cell-based; conditions: 48 h
Description: as §1, §3

[13] = system: Neuroendocrine prostate cancer models; experiment: Proliferation assay, all Neuroendocrine prostate cancer models tested (summary); type: cell-based; conditions: DU145 and PC3 models, summary statement
Description: as §1, §2

[14] = system: KLK3; experiment: Gene expression analysis (qPCR), KLK3 in 22Rv.1 cells; type: cell-based; conditions: 48 h
Description: as §1, §3

[15] = system: TMPRSS2; experiment: Gene expression analysis (qPCR), TMPRSS2 in VCaP cells; type: cell-based; conditions: 48 h
Description: as §1, §3

[16] = system: MYC; experiment: Gene expression analysis (qPCR), MYC in 22Rv.1 cells; type: cell-based; conditions: 48 h
Description: as §1, §3

[17] = system: HEXIM1; experiment: Gene expression analysis (qPCR), HEXIM1 in LNCaP cells; type: cell-based, human; conditions: 48 h
Description: as §1, §3

IC50 [1]: 1.7 nM | IC50 ([9]; Homo sapiens, PC-3, 72 h): 4.1 nM
SMILES: Cc1nnn(C)c1-c1cnc2c3ccc(C(C)(C)O)cc3n([C@H](c3ccccc3)C3CCOCC3)c2c1 [Compound A, 2-[3-(1,4-dimethyl-1H-1,2,3-triazol-5-yl)-5-[(S)-(oxan-4-yl)(phenyl)methyl]-5H-pyrido[3,2-b]indol-7-yl]propan-2-ol]
HEXIM1 upregulated compared to DMSO ([2]; 4 nM): 968.0% | HEXIM1 upregulated compared to DMSO ([2]; 40 nM): 1257.5% | downregulation of KLK3 compared to DMSO ([3]; 4 nM): 96.9% | downregulation of KLK3 compared to DMSO ([3]; 40 nM): 99.4% | growth arrest of LNCaP cells [4]: 100% | reduction of DU145 proliferation [5]: 61.9% | downregulation of KLK3 ([6]; 4 nM): 58.8% | downregulation of KLK3 ([6]; 40 nM): 92.0% | downregulation of MYC ([7]; 4 nM): 84.1% | downregulation of MYC ([7]; 40 nM): 93.6% | reduction of TMPRSS2 compared to DMSO ([8]; 4 nM): 97.0% | reduction of TMPRSS2 compared to DMSO ([8]; 40 nM): 97.8% | reduction of PC3 proliferation [9]: 67% | growth arrest of VCaP proliferation ([10]; at 0.1 uM, related to Day 0 and DMSO): 100% | cytotoxic effect on VCaP cells ([10]; at the highest concentrations): cytotoxic effects | induction of HEXIM1 ([11]; 4 nM): 31% | upregulation of HEXIM1 ([11]; 40 nM): 91.5% | reduction in MYC expression ([12]; 4 nM): 91.4% | MYC downregulation ([12]; 40 nM): 95.7% | reduction of cell proliferation in all Neuroendocrine prostate cancer models tested [13]: ≥ 61.9% | downregulation of KLK3 ([14]; 4 nM): 99.9% | downregulation of KLK3 ([14]; 40 nM): 99.8% | downregulation of TMPRSS2 ([15]; 4 nM): 32.8% | downregulation of TMPRSS2 ([15]; 40 nM): 51.9% | downregulation of MYC ([16]; 4 nM): 98.5% | downregulation of MYC ([16]; 40 nM): 99.3% | upregulation of HEXIM1 ([17]; 4 nM): 446.8% | upregulation of HEXIM1 ([17]; 40 nM): 533.3%
